Assays:
Type in all cases: in vivo
Kochia (Kochia scoparia) [1] = assay: Test A preemergence; settings: for Plant response rating, Kochia: 125 g ai/ha; for Kochia plant response rating (0 to 100 scale, 0 is no effect, 100 is complete control): 500 g ai/ha, visual injury approx. 10 d
Procedure, shortened: (§1)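 Greenhouse, ~10 d after spray; visual injury vs untreated controls, 0 = no effect, 100 = complete control. Preemergence: directed soil spray over planted seeds. Postemergence: plants 2–10 cm, 1–2 leaf stage. Loam/sand blend. Compound in non-phytotoxic solvent with surfactant.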

[2] = test system: barnyardgrass (Echinochloa crus-galli); assay: Test A preemergence; settings: for Plant response rating, Barnyardgrass: 125 g ai/ha; for Barnyardgrass plant response rating (0 to 100 scale, 0 is no effect, 100 is complete control): 500 g ai/ha, visual injury approx. 10 d
Procedure, shortened: as §1

[3] = test system: ryegrass, Italian (Italian ryegrass, Lolium multiflorum); assay: Test A preemergence; settings: for Plant response rating, Ryegrass, Italian: 125 g ai/ha; for Ryegrass, Italian plant response rating (0 to 100 scale, 0 is no effect, 100 is complete control): 500 g ai/ha, visual injury approx. 10 d
Procedure, shortened: as §1

[4] = test system: giant foxtail (Setaria faberii); assay: Test A preemergence; settings: for Plant response rating, Foxtail, Giant: 125 g ai/ha; for Foxtail, Giant plant response rating (0 to 100 scale, 0 is no effect, 100 is complete control): 500 g ai/ha, visual injury approx. 10 d
Procedure, shortened: as §1

[5] = test system: ragweed (common ragweed, Ambrosia elatior); assay: Test A preemergence; settings: for Plant response rating, Ragweed: 125 g ai/ha; for Ragweed plant response rating (0 to 100 scale, 0 is no effect, 100 is complete control): 500 g ai/ha, visual injury approx. 10 d
Procedure, shortened: as §1

[6] = test system: pigweed (Amaranthus retroflexus); assay: Test A preemergence; settings: for Plant response rating, Pigweed: 125 g ai/ha; for Pigweed plant response rating (0 to 100 scale, 0 is no effect, 100 is complete control): 500 g ai/ha, visual injury approx. 10 d
Kochia (Kochia scoparia) [7] = assay: Test A postemergence
Procedure, shortened: as §1

[8] = test system: barnyardgrass (Echinochloa crus-galli); assay: Test A postemergence
Procedure, shortened: as §1

[9] = test system: Galium (catchweed bedstraw, Galium aparine); assay: Test A postemergence
Procedure, shortened: as §1

[10] = test system: ryegrass, Italian (Italian ryegrass, Lolium multiflorum); assay: Test A postemergence
Procedure, shortened: as §1

[11] = test system: giant foxtail (Setaria faberii); assay: Test A postemergence
Procedure, shortened: as §1

[12] = test system: blackgrass (Alopecurus myosuroides); assay: Test A postemergence
Procedure, shortened: as §1

[13] = test system: ragweed (common ragweed, Ambrosia elatior); assay: Test A postemergence
Procedure, shortened: as §1

[14] = test system: pigweed (Amaranthus retroflexus); assay: Test A postemergence
Procedure, shortened: as §1

corn (Zea mays) = assay: Test A postemergence
Procedure, shortened: as §1

[15] = test system: wheat (Triticum aestivum); assay: Test A postemergence
Procedure, shortened: as §1

rice (Oryra sativa) = assay: Test B flooded paddy test; settings: Flood, 250 g ai/ha; 0 to 100 scale where 0 is no effect and 100 is complete control; 13 to 15 d
Procedure, shortened: (§2)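 2-leaf plants; pots flooded 3 cm over soil; cpd added to paddy water; depth held; greenhouse 13–15 d; visual rating vs controls, 0 = no effect, 100 = complete control.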

[16] = test system: barnyardgrass (Echinochloa crus-galli); assay: Test B flooded paddy test; settings: Flood, 250 g ai/ha; 0 to 100 scale where 0 is no effect and 100 is complete control; 13 to 15 d
Procedure, shortened: as §2

[17] = test system: sedge, umbrella (small-flower umbrella sedge, Cyperus difformis); assay: Test B flooded paddy test; settings: Flood, 250 g ai/ha; 0 to 100 scale where 0 is no effect and 100 is complete control; 13 to 15 d
Procedure, shortened: as §2

[18] = test system: ducksalad (Heteranthera limosa); assay: Test B flooded paddy test; settings: Flood, 250 g ai/ha; 0 to 100 scale where 0 is no effect and 100 is complete control; 13 to 15 d
Procedure, shortened: as §2

[19] = preemergence, 0 to 100 scale (0 no effect, 100 complete control)
[20] = 125 g ai/ha, postemergence, visual injury rating on 0 to 100 scale (0 no effect, 100 complete control), approx. 10 d
[21] = 500 g ai/ha, postemergence, 0 to 100 scale, 0 no effect, 100 complete control
[22] = Preemergence, visual injury after approximately 10 d, 0 to 100 scale where 0 is no effect and 100 is complete control
[23] = 125 g ai/ha, postemergence, visual rating after approx. 10 d, 0 to 100 scale (0 no effect, 100 complete control)
[24] = Postemergence, 500 g ai/ha, 0 to 100 scale where 0 is no effect and 100 is complete control

COc1c(F)ccc(NC(=O)C2C(=O)N(C)CC2c2cccc(OC(F)(F)C(F)F)c2)c1F (stereo not drawn) [Compound 430]
Plant response rating, Kochia (Kochia (Kochia scoparia) [1]; [19]): 30
Kochia plant response rating (0 to 100 scale, 0 is no effect, 100 is complete control) (Kochia (Kochia scoparia) [1]; Preemergence): 70
Plant response rating, Barnyardgrass [2, 19]: 80
Barnyardgrass plant response rating (0 to 100 scale, 0 is no effect, 100 is complete control) ([2]; Preemergence): 90
Plant response rating, Ryegrass, Italian [3, 19]: 40
Ryegrass, Italian plant response rating (0 to 100 scale, 0 is no effect, 100 is complete control) ([3]; Preemergence): 50
Plant response rating, Foxtail, Giant [4, 19]: 90
Foxtail, Giant plant response rating (0 to 100 scale, 0 is no effect, 100 is complete control) ([4]; Preemergence): 90
Plant response rating, Ragweed [5, 19]: 30
Ragweed plant response rating (0 to 100 scale, 0 is no effect, 100 is complete control) ([5]; Preemergence): 50
Plant response rating, Pigweed [6, 19]: 0
Pigweed plant response rating (0 to 100 scale, 0 is no effect, 100 is complete control) ([6]; Preemergence): 50
Kochia plant response rating (Kochia (Kochia scoparia) [7]; [20]): 20
Plant response rating, Kochia (Kochia (Kochia scoparia) [7]; [21]): 50
Barnyardgrass plant response rating [8, 20]: 80
Plant response rating, Barnyardgrass [8, 21]: 90
Galium plant response rating [9, 20]: 50
Plant response rating, Galium [9, 21]: 60
Ryegrass, Italian plant response rating [10, 20]: 30
Plant response rating, Ryegrass, Italian [10, 21]: 50
Foxtail, Giant plant response rating [11, 20]: 80
Plant response rating, Foxtail, Giant [11, 21]: 80
Blackgrass plant response rating [12, 20]: 20
Plant response rating, Blackgrass [12, 21]: 70
Ragweed plant response rating [13, 20]: 0
Plant response rating, Ragweed [13, 21]: 30
Pigweed plant response rating [14, 20]: 30
Plant response rating, Pigweed [14, 21]: 50
Corn plant response rating (corn (Zea mays); [20]): 50
Plant response rating, Corn (corn (Zea mays); [21]): 70
Wheat plant response rating [15, 20]: 20
Plant response rating, Wheat [15, 21]: 50
Plant response rating, Rice (rice (Oryra sativa)): 20
Plant response rating, Barnyardgrass [16]: 65
Plant response rating, Sedge, Umbrella [17]: 0
Plant response rating, Ducksalad [18]: 100

O=C1NCC(c2cc(C(F)(F)F)ccc2F)C1C(=O)Nc1cccc(F)c1F (stereo not drawn) [Compound 594]
Plant response rating, Kochia (Kochia (Kochia scoparia) [1]; [22]): 0
Kochia plant response rating (0 to 100 scale, 0 is no effect, 100 is complete control) (Kochia (Kochia scoparia) [1]; Preemergence): 50
Plant response rating, Barnyardgrass [2, 22]: 90
Barnyardgrass plant response rating (0 to 100 scale, 0 is no effect, 100 is complete control) ([2]; Preemergence): 90
Plant response rating, Ryegrass, Italian [3, 22]: 30
Ryegrass, Italian plant response rating (0 to 100 scale, 0 is no effect, 100 is complete control) ([3]; Preemergence): 90
Plant response rating, Foxtail, Giant [4, 22]: 90
Foxtail, Giant plant response rating (0 to 100 scale, 0 is no effect, 100 is complete control) ([4]; Preemergence): 90
Plant response rating, Ragweed [5, 22]: 0
Ragweed plant response rating (0 to 100 scale, 0 is no effect, 100 is complete control) ([5]; Preemergence): 20
Plant response rating, Pigweed [6, 22]: 0
Pigweed plant response rating (0 to 100 scale, 0 is no effect, 100 is complete control) ([6]; Preemergence): 20
Plant response rating, Kochia (Kochia (Kochia scoparia) [7]; [23]): 0
Plant response rating, Kochia (Kochia (Kochia scoparia) [7]; [24]): 40
Plant response rating, Barnyardgrass [8, 23]: 90
Plant response rating, Barnyardgrass [8, 24]: 90
Plant response rating, Galium [9, 23]: 0
Plant response rating, Galium [9, 24]: 20
Plant response rating, Ryegrass, Italian [10, 23]: 20
Plant response rating, Ryegrass, Italian [10, 24]: 30
Plant response rating, Foxtail, Giant [11, 23]: 90
Plant response rating, Foxtail, Giant [11, 24]: 90
Plant response rating, Blackgrass [12, 23]: 50
Plant response rating, Blackgrass [12, 24]: 60
Plant response rating, Ragweed [13, 23]: 0
Plant response rating, Ragweed [13, 24]: 50
Plant response rating, Pigweed [14, 23]: 0
Plant response rating, Pigweed [14, 24]: 40
Plant response rating, Corn (corn (Zea mays); [23]): 60
Plant response rating, Corn (corn (Zea mays); [24]): 70
Plant response rating, Wheat [15, 23]: 30
Plant response rating, Wheat [15, 24]: 70
Plant response rating, Rice (rice (Oryra sativa)): 35
Plant response rating, Barnyardgrass [16]: 70
Plant response rating, Sedge, Umbrella [17]: 0
Plant response rating, Ducksalad [18]: 90
